Results: patent US11547735B2, “Composition for ameliorating psoriasis symptoms containing extract of Thalictrum squarrosum steph” (KOREA INSTITUTE OF SCIENCE AND TECHNOLOGY, priority 2020, dated 2023)

Columns and labels:
[1] = tested on: psoriasis caused by imiquimod; assay: Epithelial thickness of back skin by H&E staining in imiquimod psoriasis model; type: in vivo, Balb/c mice; settings: after treatment for a week, compared to the IMQ group
Source text: (§1) 6-week-old male Balb/c mice (Kangwon Life Science, Korea) were purchased and acclimated for a week, and psoriasis was induced using 5% imiquimod (Donga ST, Korea). FIG. 1 is a schematic experimental scheme of an animal model. Anti-psoriatic efficacy was investigated using a total of 20 animal models including 5 animals per experimental group.
(§2) In order to determine the effect of the extract of Thalictrum squarrosum steph on psoriasis caused by imiquimod, the experimental animals of Section 2-1 were used. The following four experimental groups were constructed and five animals were randomly assigned to each group:
(§3) The experiment was conducted by inducing psoriasis with IMQ cream and then performing daily application in the amount shown in FIG. 2 to the experimental group and the DEX group. FIG. 3 is an image showing the treatment group for 7 days compared to the psoriasis-induced model as the animal experimental model.
After treatment for a week, the back skin tissue was removed from each animal, and then a paraffin block was prepared. The paraffin block was cut to 5 μm to prepare a slide sample, and then the change in the thickness of the skin tissue was measured through H&E staining.

[2] = tested on: filaggrin, loricrin, keratin 1 and keratin 14; assay: Biomarkers for epithelial tissue damage in back skin by immunofluorescence; type: in vivo, Balb/c mice; settings: after treatment for a week, versus IMQ group
Source text: as §1, §2, §3
After treatment for a week, back skin tissue was removed from each animal and a paraffin block was then prepared. A paraffin block was cut to 5 μm to prepare a slide sample, and then the change in biomarkers for epithelial tissue damage due to psoriasis was measured through immunofluorescence.

In the case of C[C@@H]1C[C@H]2[C@@H]3CCC4=CC(=O)C=C[C@]4(C)[C@@]3(F)[C@@H](O)C[C@]2(C)[C@@]1(O)C(=O)CO [DEX, dexamethasone], the “thickness of the epithelial layer” value [1] is reported as “decreased thickness”, the “expression level of filaggrin” value [2] is reported as “increased” and the “expression level of keratin 1” value [2] is reported as “increased”. For the same compound, the “expression level of keratin 14” value [2] was “increased” and the “expression level of loricrin” value [2] was “increased”.
